Data published in US4393225A, “AI-77 Compounds and pharmaceutically acceptable salts thereof” (Asahi Kasei Kogyo Kabushiki Kaisha, priority 1979, dated 1983).
Like-named read-outs stand apart in the source and are kept apart here.

Tested on: ulcer
Test: Anti-ulcer test (restraint and water immersion ulcer in rats, i.p.)
Assay type: in vivo, Male Wistar rats
Settings: Rattus norvegicus, ip, read-out: % Inhibition of Ulcer; for inhibition in vivo at 50 mg/kg: 50 mg/kg i.p.
Summary of the method: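 Compound given intraperitoneally in saline to 24 h-fasted male Wistar rats about 150 g, followed after one hour by 6 h restraint with water immersion at 21 °C. Gastric lesions graded 0, 0.5, 1, 2 or 3 on microscopic inspection and converted to percent ulcer inhibition.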

Compound	inhibition in vivo at 50 mg/kg	further results
CC(C)CC(NC(=O)C(O)C1C=CC(=O)O1)C1Cc2cccc(OC(=O)CCC3CCCC3)c2C(=O)O1 (stereo not drawn) [IVa-3-15]	33%	
COc1ccc(C(=O)Oc2cccc3c2C(=O)OC(C(CC(C)C)NC(=O)C(O)C2C=CC(=O)O2)C3)cc1 (stereo not drawn) [IVa-3-16]	33%	
COC(C)CC(=O)Oc1cccc2c1C(=O)OC(C(CC(C)C)NC(=O)C(O)C1C=CC(=O)O1)C2 (stereo not drawn) [IVa-3-17]	33%	
C/C=C/C(=O)Oc1cccc2c1C(=O)OC(C(CC(C)C)NC(=O)C(O)C1C=CC(=O)O1)C2 (stereo not drawn) [IVa-3-18]	33%	
COc1cccc2c1C(=O)OC(C(CC(C)C)NC(=O)C(O)C1C=CC(=O)O1)C2 (stereo not drawn) [IVa-4-1]	44%	
CCOc1cccc2c1C(=O)OC(C(CC(C)C)NC(=O)C(O)C1C=CC(=O)O1)C2 (stereo not drawn) [IVa-4-2]	44%	
CCCCOc1cccc2c1C(=O)OC(C(CC(C)C)NC(=O)C(O)C1C=CC(=O)O1)C2 (stereo not drawn) [IVa-4-3]	44%	
CC(C)CCOc1cccc2c1C(=O)OC(C(CC(C)C)NC(=O)C(O)C1C=CC(=O)O1)C2 (stereo not drawn) [IVa-4-4]	44%	
CCCCCCCCCCCCCCCCCCOc1cccc2c1C(=O)OC(C(CC(C)C)NC(=O)C(O)C1C=CC(=O)O1)C2 (stereo not drawn) [IVa-4-5]	33%	
CC(C)CC(NC(=O)C(O)C1C=CC(=O)O1)C1Cc2cccc(OCCCl)c2C(=O)O1 (stereo not drawn) [IVa-4-6]	44%	
CCCCCCCCC=CCCCCCCCCOc1cccc2c1C(=O)OC(C(CC(C)C)NC(=O)C(O)C1C=CC(=O)O1)C2 (stereo not drawn) [IVa-4-7]	33%	
CC(C)CC(NC(=O)C(O)C1C=CC(=O)O1)C1Cc2cccc(OCc3ccccc3)c2C(=O)O1 (stereo not drawn) [IVa-4-9]	33%	
CC(C)CC(NC(=O)C(O)C1C=CC(=O)O1)C1Cc2cccc(OCC3CCCCC3)c2C(=O)O1 (stereo not drawn) [IVa-4-11]	33%	
CC(C)CC(NC(=O)C(O)C1C=CC(=O)O1)C1Cc2cccc(OCCc3ccccc3)c2C(=O)O1 (stereo not drawn) [IVa-4-12]	44%	
CC(C)CC(NC(=O)C(O)C1C=CC(=O)O1)C1Cc2cccc(OCc3ccco3)c2C(=O)O1 (stereo not drawn) [IVa-4-13]	33%	
CC(C)CC(NC(=O)C(O)C1C=CC(=O)O1)C1Cc2cccc(OCC3CCCO3)c2C(=O)O1 (stereo not drawn) [IVa-4-14]	33%	
CC(C)CC(NC(=O)C(O)C1C=CC(=O)O1)C1Cc2cccc(OCCC3CCCCO3)c2C(=O)O1 (stereo not drawn) [IVa-4-15]	44%	

Compound	inhibition in vivo at 50 mg/kg	further results
CC(=O)N1CCC(COc2cccc3c2C(=O)OC(C(CC(C)C)NC(=O)C(O)C2C=CC(=O)O2)C3)CC1 (stereo not drawn) [IVa-4-16]	33%	
CC(C)CC(NC(=O)C(O)C1C=CC(=O)O1)C1Cc2cccc(OCc3ccc4ccccc4c3)c2C(=O)O1 (stereo not drawn) [IVa-4-17]	33%	
CC(C)CC(NC(=O)C(O)C1C=CC(=O)O1)C1Cc2cccc(OCCc3ccc4ccccc4c3)c2C(=O)O1 (stereo not drawn) [IVa-4-18]	33%	
CC(C)CC(NC(=O)C(O)C1C=CC(=O)O1)C1Cc2cccc(OCCCBr)c2C(=O)O1 (stereo not drawn) [IVa-4-19]	44%	
CCC(=O)COc1cccc2c1C(=O)OC(C(CC(C)C)NC(=O)C(O)C1C=CC(=O)O1)C2 (stereo not drawn) [IVa-4-20]	44%	
Cc1ccc(COc2cccc3c2C(=O)OC(C(CC(C)C)NC(=O)C(O)C2C=CC(=O)O2)C3)cc1 (stereo not drawn) [IVa-4-21]	33%	
CC(C)CCc1ccc(COc2cccc3c2C(=O)OC(C(CC(C)C)NC(=O)C(O)C2C=CC(=O)O2)C3)cc1 (stereo not drawn) [IVa-4-22]	33%	
COc1ccc(COc2cccc3c2C(=O)OC(C(CC(C)C)NC(=O)C(O)C2C=CC(=O)O2)C3)cc1 (stereo not drawn) [IVa-4-23]	33%	
CC(C)CCOc1ccc(COc2cccc3c2C(=O)OC(C(CC(C)C)NC(=O)C(O)C2C=CC(=O)O2)C3)cc1 (stereo not drawn) [IVa-4-24]	33%	
CC(C)CC(NC(=O)C(O)C(O)C(N)CC(N)=O)C1Cc2cccc(O)c2C(=O)O1 (stereo not drawn) [VII-1-1]		inhibition in vivo at 25 mg/kg: 100%
CNC(=O)CC(N)C(O)C(O)C(=O)NC(CC(C)C)C1Cc2cccc(O)c2C(=O)O1 (stereo not drawn) [VII-1-2]		inhibition in vivo at 25 mg/kg (25 mg/kg i.p.): 100%
CCNC(=O)CC(N)C(O)C(O)C(=O)NC(CC(C)C)C1Cc2cccc(O)c2C(=O)O1 (stereo not drawn) [VII-1-3]		inhibition in vivo at 25 mg/kg (25 mg/kg i.p.): 100%
CCCCNC(=O)CC(N)C(O)C(O)C(=O)NC(CC(C)C)C1Cc2cccc(O)c2C(=O)O1 (stereo not drawn) [VII-1-4]		inhibition in vivo at 25 mg/kg (25 mg/kg i.p.): 100%
CC(C)CCNC(=O)CC(N)C(O)C(O)C(=O)NC(CC(C)C)C1Cc2cccc(O)c2C(=O)O1 (stereo not drawn) [VII-1-5]		inhibition in vivo at 25 mg/kg (25 mg/kg i.p.): 100%
CCCCCCCCCCCCCCCCCCNC(=O)CC(N)C(O)C(O)C(=O)NC(CC(C)C)C1Cc2cccc(O)c2C(=O)O1 (stereo not drawn) [VII-1-6]		inhibition in vivo at 25 mg/kg (25 mg/kg i.p.): 89%
CCCCCCCCC=CCCCCCCCCNC(=O)CC(N)C(O)C(O)C(=O)NC(CC(C)C)C1Cc2cccc(O)c2C(=O)O1 (stereo not drawn) [VII-1-8]		inhibition in vivo at 25 mg/kg (25 mg/kg i.p.): 89%
